Marks after values point to notes of the source that are not given here.
Experiments:
Adult S. mansoni = assay: In vitro antischistosomal activity on adult worms; assay type: cell-based, Schistosoma mansoni; settings: 100 µg/mL; for Mean (±SD) survival time – Adult S. mansoni: observation up to 8 h (Table S1); for Time for the death of 100% worms: adult S. mansoni, observation up to 8 h
Excerpt: The NMRI strain of Schistosoma mansoni was used for the experimentations. The parasite was maintained on an albino variety of Biomphalaria glabrata from Brazil (intermediate host) and in Golden Hamsters, Mesocricetus auratus (Janvier Labs, Le Genest-Saint-Isle, France). Detailed methods, for mollusk and hamster infections and for parasite recovery, were previously described.
Adult worms were recovered between 42 and 47 days after infection by hepatic perfusion technique. Twenty to fifty adult worms were disposed in 12-well Falcon® plate containing 2 mL of RPMI 1640 (supplemented with L-glutamine and Hepes 25 mM) and stored in an incubator chamber (37 °C; 5% CO2). Drug preparation started with dissolution of the drug in DMSO to give a 100 mg/mL stock solution. The dilution was complemented with Tween 80 and RPMI in order to obtain the following final ratio dilution: RPMI 1640/Tween 80/DMSO, 1000/0.95/3.8, v/v/v. The drug solution was added to Falcon plates that contained adult worms. The S. mansoni cultures were then incubated with each drug at a final concentration of 100 µg/mL. Positive control was carried out with a solution of praziquantel (Merck KGaA, Darmstadt, Germany) at a concentration of 100 µg/mL. Negative control was carried out with the same RPMI 1640/Tween 80/DMSO solution, but without any drug. Each test was performed in duplicate. Every hour, moving worms were counted in order to define the percentage of survivors. Parasites showing no body contractions during a 30 s observation were considered as dead. Observations were extended to 8 h. Mean survival times (± standard deviation) were calculated for each drug using Kaplan–Meier survival analyses.

[1] = test system: P. falciparum chloroquine-resistant strain FcB1-Columbia; assay: Antiplasmodial screen at 10 µM and chemosensitivity assay (SYBR Green I), FcB1-Columbia; assay type: cell-based, Plasmodium falciparum; settings: FcB1-Columbia strain; read-out: IC50 on P. falciparum
[2] = Homolysis of the NO–C bond measured by EPR
Method: Homolysis rate constants kd’ were measured by EPR and estimated using Equation (1) as reported many times in the literature. Further, Ea and kd were estimated using Equation (2). (1) ln([nitroxide]∞−[nitroxide]t/[nitroxide]∞)=−kd·t (2) Ea=−RT ln([…] kd′ )

| Molecule | Mean (±SD) survival time – Adult S. mansoni (Adult S. mansoni) [h] | Time for the death of 100% worms (Adult S. mansoni) [h] | also measured |
| --- | --- | --- | --- |
| 4-hydroxy-tetramethylpiperidine-N-oxyl [compound 8] | > 8 | > 8 |  |
| CCOP(=O)(OCC)[C@@H](N(O[C@@H](COC(C)=O)c1ccccn1)C(C)(C)C)C(C)(C)C (relative stereo) [(RR/SS)-1j] | > 8 | > 8 | IC50 [1]: > 10 µM |
| CCOP(=O)(OCC)[C@@H](N(O[C@H](C)n1cc[n+](C)c1)C(C)(C)C)C(C)(C)C.Cc1ccc(S(=O)(=O)[O-])cc1 (relative stereo) [(RR/SS)-1n] | > 8 | > 8 |  |
| CCOP(=O)(OCC)[C@@H](N(O[C@H](COC(C)=O)c1ccccn1)C(C)(C)C)C(C)(C)C (relative stereo) [(RS/SR)-1j] | > 8 | > 8 | IC50 [1]: > 10 µM |
| CCOP(=O)(OCC)C(N(OC(C)c1cc(-c2ccccn2)nc(-c2ccccn2)c1)C(C)(C)C)C(C)(C)C (centres unmarked) [1F] |  |  | IC50 [1]: > 10 µM |
| CCOP(=O)(OCC)C(N(OC(C)c1ccncc1)C(C)(C)CO)C(C)(C)C (centres unmarked) [2a] | > 8 | > 8 |  |
| CCOP(=O)(OCC)C(N(OC(C)c1cccnc1)C(C)(C)CO)C(C)(C)C (centres unmarked) [2b] | > 8 | > 8 |  |
| CC(ON1C(C)(C)CC(O)CC1(C)C)c1ccncc1 (centres unmarked) [8a] | > 8 | > 8 |  |
| CC(ON1C(C)(C)CC(O)CC1(C)C)c1cccnc1 (centres unmarked) [8b] | > 8 | > 8 |  |
| CC(ON1C(C)(C)CC(O)CC1(C)C)c1ccccc1 (centres unmarked) [8z] | 1.9 ± 0.1 | 2 |  |
| CC(ON1C(C)(C)CCCC1(C)C)c1cc(-c2ccccn2)nc(-c2ccccn2)c1 (centres unmarked) [9F] |  |  | activation energy Ea ([2]; MeOH/water 1:1 pH = 7.4): 131.9 ^k kJ/mol; re-estimated homolysis rate constant kd at 120 °C ([2]; MeOH/water 1:1 pH = 7.4): 0.7 ^k 10^−3 s^−1; half-lifetime t1/2 at 37 °C ([2]; MeOH/water 1:1 pH = 7.4 (aqueous medium)): 385 ^k day; homolysis rate constant kd′ ([2]; MeOH/water 1:1 pH = 7.4, 90 °C): 0.25 ^k 10^−4s^−1; activation energy Ea ([2]; t-BuPh): 131.0 ^k kJ/mol; half-lifetime t1/2 at 37 °C ([2]; t-BuPh): 385 ^k day; re-estimated homolysis rate constant kd at 120 °C ([2]; t-BuPh): 0.95 ^k 10^−3 s^−1; homolysis rate constant kd′ ([2]; t-BuPh, 111 °C): 3.7 ^k 10^−4s^−1 |
| CC(ON1C(C)(C)CCCC1(C)C)c1cccnc1 (centres unmarked) [9b] |  | 3 |  |
| CC(ON1C(C)(C)CCCC1(C)C)c1ccccc1 (centres unmarked) [9z] | > 8 | > 8 |  |
| CC(ON(C(C)(C)C)C(C)(C)C)c1ccncc1 (centres unmarked) [14a] | 2.5 ± 0.10 | 3 |  |
| CCOP(=O)(OCC)C(N(OC(C)c1cccnc1)C(C)(C)C)C(C)(C)C (centres unmarked) [(RR/SS)-1b] |  |  | IC50 [1]: 22.5 µM |
| CCOP(=O)(OCC)C(N(OC(C)c1ccccn1)C(C)(C)C)C(C)(C)C (centres unmarked) [(RR/SS)-1c] |  |  | IC50 [1]: > 10 µM |
| CCOP(=O)(OCC)C(N(OC(C)c1cn(C)cn1)C(C)(C)C)C(C)(C)C (centres unmarked) [(RR/SS)-1q] | 3.3 ± 0.9 | 6 |  |

Source: publication PMC7503767, “Alkoxyamines Designed as Potential Drugs against Plasmodium and Schistosoma Parasites” (Molecules, 2020)
